Results as given in patent US12617771B2, “Diphenylpyrazole compound, and preparation method therefor and application thereof” (NORTHWEST A&F UNIVERSITY, priority 2021, dated 2026).
Several values for one entry are separate records, joined by “and”; a condition that tells them apart may be missing. Equal values may be shown once.

Tests used:
Assay type in all cases: biochemical
Plutella xylostella GSTs = assay: Inhibition of total GSTs enzyme of Plutella xylostella (CDNB method)
Protocol: (§1) Experiment: About 50 mg of larvae/nymphs of nine major pests such as Plutella xylostella, Mythimna separata, Pyrausta nubilalis, Chilo suppressalis, Nilaparvata lugens, Spodoptera frugiperda, Helicoverpa armigera, Carposina sasakii, Spodoptera litura were taken, grounded in a mortar pre-cooled at −80° C., and then 1 mL of 100 mM sodium phosphate buffer (1 mM EDTA, pH 7.2) was added and fully homogenized. The homogenate was transferred to a 1.5 mL centrifuge tube at 4° C., and centrifuged at 14,000 g for 30 minutes, and the supernatant was transferred to a new centrifuge tube as the GSTs total enzyme. The protein concentrations of the above total enzymes were determined using the BCA method.
(§2) 100 μL of PBS buffer (100 mM, pH 7.2) containing 1 mM GSH was taken and placed in a 96-well plate, 5 μg of insect total GSTs enzymes and an appropriate concentration of compounds PXG1-PXG29 (29 compounds) of the present invention were added to each well, after uniformly mixing, and allowed to stand at 30° C. for 10 min. Then 100 μL of PBS buffer (100 mM, pH 7.2) containing 1 mM CDNB was added to each well. Immediately after mixing, the mixture was placed in a microplate reader to measure the absorbance at a wavelength of 340 nm (A 340) once every 1 min, the measurement was carried out continuously for 5 min, the light absorption values of each measuring point were recorded and the inhibition rate in vitro of the compounds with different concentrations against insects total GSTs enzymes were calculated. Each group of assays was repeated three times, and total GSTs enzymes inactivated at 100° C. for 5 min were used as negative controls, and GTX was used as positive controls. GraphPad Prism 5 software was used for analysis and calculation of IC50. Relative inhibition was calculated using the following formula:
(§3) [formula] • wherein, A340 is the change of A340 within 5 minutes for the control group, and A340t is the change of A340 within 5 minutes for the experimental group.

Carposina sasakii GSTs = assay: Inhibition of total GSTs enzyme of Carposina sasakii (CDNB method)
Protocol: as §1, §2, §3

Spodoptera litura GSTs = assay: Inhibition of total GSTs enzyme of Spodoptera litura (CDNB method)
Protocol: as §1, §2, §3

Mythimna separata GSTs = assay: Inhibition of total GSTs enzyme of Mythimna separata (CDNB method)
Protocol: as §1, §2, §3

Pyrausta nubilalis GSTs = assay: Inhibition of total GSTs enzyme of Pyrausta nubilalis (CDNB method)
Protocol: as §1, §2, §3

Chilo suppressalis GSTs = assay: Inhibition of total GSTs enzyme of Chilo suppressalis (CDNB method)
Protocol: as §1, §2, §3

Nilaparvata lugens GSTs = assay: Inhibition of total GSTs enzyme of Nilaparvata lugens (CDNB method)
Protocol: as §1, §2, §3

[1] = tested on: Spodoptera frugiperda GSTs; assay: Inhibition of total GSTs enzyme of Spodoptera frugiperda (CDNB method)
Protocol: as §1, §2, §3

[2] = biological target: Helicoverpa armigera GSTs; assay: Inhibition of total GSTs enzyme of Helicoverpa armigera (CDNB method)
Protocol: as §1, §2, §3

PxGSTδ1 = PxGSTδ1 (Plutella xylostella, UniProt D7URW9); assay: Inhibition of PxGSTδ1 recombinant protein; details: read-out: 100 μM Inhibition rate %
Sequence of PxGSTδ1 (D7URW9 entry or part of it): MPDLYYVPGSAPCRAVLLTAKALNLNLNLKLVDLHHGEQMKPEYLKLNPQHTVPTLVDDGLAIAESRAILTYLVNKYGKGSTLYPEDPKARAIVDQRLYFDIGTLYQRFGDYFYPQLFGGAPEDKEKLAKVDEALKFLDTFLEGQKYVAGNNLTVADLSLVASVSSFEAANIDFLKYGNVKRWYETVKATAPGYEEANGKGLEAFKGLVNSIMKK
Protocol: (§4) Experiment: 100 μL of PBS buffer (100 mM, pH 7.2) was taken and added to a 96-well plate, 1 μg of PxGSTs recombinant protein and an appropriate concentration of the compounds PXG1-PXG29 of the present invention were added to each well, after uniformly mixing, and allowed to stand at 30° C. for 10 min. Then 100 μL of PBS buffer (100 mM, pH 7.2) containing 1 mM CDNB and 1 mM GSH was successively added to each well. Immediately after mixing, the mixture was placed in a microplate reader to measure the absorbance at a wavelength of 340 nm (A340) once every 1 min, the measurement was continued for 5 min, the light absorption values of each measuring point were recorded and the inhibition rate in vitro of the compounds PXG1-PXG29 of the present invention with different concentrations against PxGSTs recombinant protein were calculated. Each group of assays was repeated three times, and PxGSTs recombinant protein inactivated at 100° C. for 5 min was used as negative control, and GTX was used as positive control. GraphPad Prism 5 software was used for analysis and calculation of IC50. Relative inhibition was calculated using the following formula:
(§5) [formula] • wherein, A340c is the change of A340 […] the control group, an A340t is the change of A340 within 5 minutes for the experimental group.

PxGSTσ1 = PxGSTσ1 (Plutella xylostella, UniProt Q6F436); assay: Inhibition of PxGSTσ1 recombinant protein; details: read-out: 100 μM Inhibition rate %
Sequence of PxGSTσ1 (Q6F436 entry or part of it): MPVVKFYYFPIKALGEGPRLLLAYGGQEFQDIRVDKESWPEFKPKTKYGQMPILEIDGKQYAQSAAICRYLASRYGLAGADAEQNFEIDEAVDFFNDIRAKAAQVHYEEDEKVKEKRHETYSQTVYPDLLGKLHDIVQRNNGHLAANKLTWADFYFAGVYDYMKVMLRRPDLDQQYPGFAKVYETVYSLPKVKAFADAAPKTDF
Protocol: as §4, §5

PxGSTσ2 = PxGSTσ2 (Plutella xylostella, UniProt Q6F443); assay: Inhibition of PxGSTσ2 recombinant protein; details: read-out: 100 μM Inhibition rate %
Sequence of PxGSTσ2 (Q6F443 entry or part of it): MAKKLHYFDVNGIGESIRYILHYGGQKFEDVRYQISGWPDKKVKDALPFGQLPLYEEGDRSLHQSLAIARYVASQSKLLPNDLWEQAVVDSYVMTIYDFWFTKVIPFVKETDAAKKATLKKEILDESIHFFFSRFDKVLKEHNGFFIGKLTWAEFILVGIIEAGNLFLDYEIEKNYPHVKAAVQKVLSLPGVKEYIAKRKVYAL
Protocol: as §4, §5

PxGSTε3 = PxGSTε3 (Plutella xylostella, UniProt O77409); assay: Inhibition of PxGSTε3 recombinant protein; details: read-out: 100 μM Inhibition rate %
Sequence of PxGSTε3 (O77409 entry or part of it): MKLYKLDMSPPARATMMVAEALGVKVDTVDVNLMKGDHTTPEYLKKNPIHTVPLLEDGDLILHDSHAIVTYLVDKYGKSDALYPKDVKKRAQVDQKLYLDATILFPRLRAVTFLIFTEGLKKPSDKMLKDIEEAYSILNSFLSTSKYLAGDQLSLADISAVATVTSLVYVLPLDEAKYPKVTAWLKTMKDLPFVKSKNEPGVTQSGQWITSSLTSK
Protocol: as §4, §5

Row | Structure (SMILES) | inhibition at 100 µM (PxGSTδ1) | inhibition at 100 µM (PxGSTσ1) | inhibition at 100 µM (PxGSTσ2) | inhibition at 100 µM (PxGSTε3) | also measured
1 | CCCCCCSC[C@H](NC(=O)CC[C@H](N)C(=O)O)C(=O)NCC(=O)O [GTX, S-Hexylglutathione, reference compound] | 66.5% | 67.3% | 84.8% | 50.7% | IC50 (Plutella xylostella GSTs): 12.9 µM; 100 μM Inhibition rate % (Plutella xylostella GSTs): 73.72%; IC50 (Carposina sasakii GSTs): 6.87 µM; 100 μM Inhibition rate % (Carposina sasakii GSTs): 95.39%; IC50 (Spodoptera litura GSTs): 15.2 µM; 100 μM Inhibition rate % (Spodoptera litura GSTs): 85.61%; IC50 (Mythimna separata GSTs): 16.3 µM; 100 μM Inhibition rate % (Mythimna separata GSTs): 87.20%; IC50 (Pyrausta nubilalis GSTs): 23.5 µM; 100 μM Inhibition rate % (Pyrausta nubilalis GSTs): 86.35%; 100 μM Inhibition rate % (Chilo suppressalis GSTs): 99.97%; 100 μM Inhibition rate % (Nilaparvata lugens GSTs): 95.14%; 100 μM Inhibition rate % [1]: 95.20%; IC50 [2]: 14.4 µM and 14.1 µM; 100 μM Inhibition rate % [2]: 96.30%
2 | O=C(CNc1ccccc1)NNC(=O)c1cc(-c2ccccc2)nn1-c1ccccc1 [PXG3, N′-(1,3-diphenyl-1H-pyrazol-5-yl-carbonyl)-2-(phenylamino) acetohydrazide] | 72.4% | 36.1% | 27.6% | -1.11% | IC50 (Plutella xylostella GSTs): > 100 µM; 100 μM Inhibition rate % (Plutella xylostella GSTs): 25.47%; IC50 (Carposina sasakii GSTs): > 100 µM; 100 μM Inhibition rate % (Carposina sasakii GSTs): 23.07%; IC50 (Spodoptera litura GSTs): > 100 µM; 100 μM Inhibition rate % (Spodoptera litura GSTs): 17.09%; IC50 (Mythimna separata GSTs): > 100 µM; 100 μM Inhibition rate % (Mythimna separata GSTs): 42.96%; IC50 (Pyrausta nubilalis GSTs): > 100 µM; 100 μM Inhibition rate % (Pyrausta nubilalis GSTs): 17.35%; IC50 (Chilo suppressalis GSTs): > 100 µM; 100 μM Inhibition rate % (Chilo suppressalis GSTs): 26.63%; IC50 (Nilaparvata lugens GSTs): > 100 µM; 100 μM Inhibition rate % (Nilaparvata lugens GSTs): 35.05%; IC50 [1]: > 100 µM; 100 μM Inhibition rate % [1]: 35.46%; IC50 [2]: > 100 µM; 100 μM Inhibition rate % [2]: 20.74%
3 | COc1cc(C(=O)NNC(=O)c2cc(-c3ccccc3)nn2-c2ccccc2)cc(OC)c1OC [PXG4, N′-(1,3-diphenyl-1H-pyrazol-5-yl-carbonyl)-3,4,5-trimethoxybenzohydrazine] | 18.4% | 43.6% | 21.6% | 8.88% | IC50 (Plutella xylostella GSTs): > 100 µM; 100 μM Inhibition rate % (Plutella xylostella GSTs): −10.64%; IC50 (Carposina sasakii GSTs): > 100 µM; 100 μM Inhibition rate % (Carposina sasakii GSTs): 2.34%; IC50 (Spodoptera litura GSTs): > 100 µM; 100 μM Inhibition rate % (Spodoptera litura GSTs): −17.52%; IC50 (Mythimna separata GSTs): > 100 µM; 100 μM Inhibition rate % (Mythimna separata GSTs): 0.00%; IC50 (Pyrausta nubilalis GSTs): > 100 µM; 100 μM Inhibition rate % (Pyrausta nubilalis GSTs): −7.23%; IC50 (Chilo suppressalis GSTs): > 100 µM; 100 μM Inhibition rate % (Chilo suppressalis GSTs): −10.90%; IC50 (Nilaparvata lugens GSTs): > 100 µM; 100 μM Inhibition rate % (Nilaparvata lugens GSTs): −5.99%; IC50 [1]: > 100 µM; 100 μM Inhibition rate % [1]: −7.57%; IC50 [2]: > 100 µM; 100 μM Inhibition rate % [2]: 4.07%
4 | O=C(NNC(=O)c1cc(-c2ccc(Cl)cc2)nn1-c1ccccc1)c1cccnc1 [PXG7, N′-[3-(4-chlorophenyl)-1-phenyl-1H-pyrazol-5-yl-carbonyl]pyridin-3-yl-carbohydrazide] | 55.7% | 35.1% | 20.1% | 5.93% | –
5 | O=C(NNC(=O)[C@@H]1COc2ccccc2O1)c1cc(-c2ccccc2)nn1-c1ccccc1 [PXG8, (2S)-N′-(1,3-diphenyl-1H-pyrazol-5-yl-carbonyl)-2,3-dihydro-1,4-benzodioxin-2-yl-carbohydrazide] | 69.5% | 37.8% | 42.4% | -3.3% | –
6 | CCC1(C)NC(=O)N(NC(=O)c2cc(-c3ccccc3)nn2-c2ccccc2)C1=O (centres unmarked) [PXG13, N-(4-ethyl-4-methyl-2,5-dioxaimidazolin-1-yl)-1,3-diphenyl-1H-pyrazol-5-yl-carboxamide] | 14.1% | 34.2% | 22.8% | 18.4% | –
7 | COc1ccc(C2(C)NC(=O)N(NC(=O)c3cc(-c4ccccc4)nn3-c3ccccc3)C2=O)cc1 (centres unmarked) [PXG14, N-[4-(4-methoxyphenyl)-4-methyl-2,5-dioxaimidazolin-1-yl]-1,3-diphenyl-1H-pyrazol-5-yl-carboxamide] | 14.9% | 52.2% | 36.4% | 15.3% | –
8 | COc1cccc(C2(C)NC(=O)N(NC(=O)c3cc(-c4ccccc4)nn3-c3ccccc3)C2=O)c1 (centres unmarked) [PXG17, N-[4-(3-methoxyphenyl)-4-methyl-2,5-dioxaimidazolin-1-yl]-1,3-diphenyl-1H-pyrazol-5-yl-carboxamide] | 2.22% | 48.9% | 43.9% | 4.43% | –
9 | O=C(NNC(=O)c1cc(-c2ccc(Cl)cc2)nn1-c1ccccc1)c1ccccn1 [PXG20, N′-[3-(4-chlorophenyl)-1-phenyl-1H-pyrazol-5-yl-carbonyl]pyridin-2-yl-carbohydrazide] | 23% | 71.8% | 29.6% | -15.7% | –
10 | CCn1c(C)nc2cc(C(=O)NNC(=O)c3cc(-c4ccccc4)nn3-c3ccccc3)ccc21 [PXG21, N′-(1-ethyl-2-methyl-1H-1,3-benzodiazol-5-yl-carbonyl)-1,3-diphenyl-1H-pyrazol-5-yl-carbohydrazide] | 7.82% | 44.9% | 11.7% | -2.67% | –
11 | CCOC(=O)NNC(=O)c1cc(-c2ccccc2)nn1-c1ccccc1 [PXG24, N′-(ethoxycarbonyl)-1,3-diphenyl-1H-pyrazol-5-yl-carbohydrazide] | 23.1% | 14.9% | 19.7% | 28.3% | –
12 | O=C(NNC(=O)c1cc(-c2ccccc2)nn1-c1ccccc1)c1cccnc1O [PXG25, N′-(1,3-diphenyl-1H-pyrazol-5-yl-carbonyl)-2-hydroxypyridin-3-yl-carbohydrazide] | 23.8% | -1.47% | 15.3% | 2.07% | –
13 | O=C(NNC(=O)c1cc(-c2ccccc2)nn1-c1ccccc1)c1ccc(=O)[nH]n1 [PXG27, N′-(1,3-diphenyl-1H-pyrazol-5-yl-carbonyl)-6-oxo-1,6-dihydropyridazin-3-yl-carbohydrazide] | 41.7% | 25.1% | 42.4% | 17.6% | –
14 | O=C(NNC(=O)C1CCCC1)c1cc(-c2ccccc2)nn1-c1ccccc1 [PXG28, N′-(1,3-diphenyl-1H-pyrazol-5-yl-carbonyl) cyclopentyl carbohydrazide] | 70.9% | 19.5% | 23.4% | 0.96% | –
